The conditions of this data set: not told.

Results on one substance are retold here after patent US6064908A, “Device for ionophoresis comprising at least a membrane electrode assembly, for the transcutaneous administration of active principles to a subject” (Elf Aquitaine, priority 1996, dated 2000).

Description: In each of the determinations mentioned above, samples of the liquid contained in the receiver compartment were taken after determined durations and, by assaying the antifactor Xa activity of the said samples, the quantity of pentasaccharide which has passed into the receiver compartment through the membrane was obtained.

Turning to polyamide-11, the “Permeability (to pentasaccharide), passive” value is reported as ~ 0 μg/cm^2.
